In US4883796A, “Oxime ethers of 2,6-dioxabicyclo(3.3.0)octanones, and compositions and methods for treatment of a cardiac disease or circulatory with them” (Heinrich Mack Nachf., priority 1987, dated 1989):

Tests used:
[1] = orientating toxicity, mice, perorally; conditions: mouse, in vivo, po, read-out: dose withstood without clinical symptoms and without fatalities
[2] = system: isolated aorta strips; experiment: inhibition of potassium chloride-induced contractions on isolated aorta strips, rat; assay type: cell-based; conditions: read-out: ED50, inhibition of potassium chloride-induced contractions
[3] = system: isolated aorta strips; experiment: inhibition of potassium chloride-induced contractions on isolated aorta strips, rabbit; assay type: cell-based; conditions: Oryctolagus cuniculus, read-out: ED50, inhibition of potassium chloride-induced contractions
[4] = system: Isoprenaline tachycardia; experiment: Inhibition of Isoprenaline tachycardia in narcotised, despinalised rats; assay type: in vivo; conditions: Rattus norvegicus, prophylactic
Text: Inhibition of Isoprenaline tachycardia in narcotised,
despinalised rats after prophylactic, intravenous or
intraduodenal application

[5] = system: Lypressin-induced T-wave elevation in the ECG; experiment: Influence on the Lypressin-induced T-wave elevation in the ECG of narcotised rats; assay type: in vivo
Protocol: Influence on the T-wave elevation in the ECG of narcotised
rats, which was induced by intravenous bolus injection of
Lypressin. The substances were administered perorally 15
minutes and at various times before the Lypressin injection

[6] = Influence on systolic arterial pressure and heart rate of conscious normotensive beagle dogs, perorally; assay type: in vivo; conditions: 10.0 mg/kg perorally; for HR (heart rate): 0 h value 88 ± 3; for SAP (systolic arterial pressure): 0 h value 134 ± 3
Protocol: Influence on the systolic arterial pressure (SAP) and the heart rate
(HR) of concious normotensive beagle dogs. Substance was administered

[7] = Reduction of the arterial mean pressure in narcotised rabbits, i.d.; assay type: in vivo; conditions: Oryctolagus cuniculus, intraduodenal, read-out: ED30 (mmHg), reduction of the arterial mean pressure
Protocol: Reduction of the arterial mean pressure in narcotised rabbits.
The substance was administered i.d.

CC(C)NCC(O)CON=C1CO[C@H]2[C@@H]1OC[C@H]2O[N+](=O)[O-] (stereo partly drawn) [Example 1, 4-(2-Hydroxy-3-isopropylamino-propyl)-oximino-2,6-dioxabicyclo[3.3.0]octan-8-endo-ol-nitrate]
NOAEL [1]: 500 mg/kg | IC50 [2]: 24 µM | IC50 [3]: 5.9 µM | ED50 ([4]; iv): 11 mg/kg | ED50 ([4]; i.d.): 82.6 mg/kg | ED50 ([5]; Rattus norvegicus, po, 0.25 h, perorally 15 minutes before Lypressin): 53.8 mg/kg | Length of action at ED50-Dose ([5]; perorally): 240 min | HR changes ([6]; 0.5 h): -15 ± 3 Schl/M | SAP changes ([6]; 0.5 h): -36 ± 2 mmHg | HR (heart rate) ([6]; 0.5 h): 73 ± 3 Schl/M | SAP (systolic arterial pressure) ([6]; 0.5 h): 98 ± 3 mmHg | HR changes ([6]; 1 h): -16 ± 4 Schl/M | SAP changes ([6]; 1 h): -32 ± 2 mmHg | HR (heart rate) ([6]; 1 h): 72 ± 5 Schl/M | SAP (systolic arterial pressure) ([6]; 1 h): 102 ± 4 mmHg | HR changes ([6]; 2 h): -14 ± 2 Schl/M | SAP changes ([6]; 2 h): -20 ± 1 mmHg | HR (heart rate) ([6]; 2 h): 74 ± 6 Schl/M | SAP (systolic arterial pressure) ([6]; 2 h): 114 ± 3 mmHg | HR changes ([6]; 3 h): -10 ± 3 Schl/M | SAP changes ([6]; 3 h): -16 ± 2 mmHg | HR (heart rate) ([6]; 3 h): 78 ± 4 Schl/M | SAP (systolic arterial pressure) ([6]; 3 h): 118 ± 3 mmHg | HR changes ([6]; 4 h): -9 ± 2 Schl/M | SAP changes ([6]; 4 h): -19 ± 3 mmHg | HR (heart rate) ([6]; 4 h): 79 ± 5 Schl/M | SAP (systolic arterial pressure) ([6]; 4 h): 115 ± 3 mmHg | ED (30 mmHg) [7]: 24.2 mg/kg
